This note sets out measurements from patent US11957759B1, “Rapidly accelerated fibrosarcoma (RAF) degrading compounds and associated methods of use” (Arvinas Operations, Inc., priority 2022, dated 2024).

The term DC50 denotes the midpoint of the concentration-degradation curve. As a reminder, the Dmax is the largest share of the target that was removed. Higher therefore signals a fuller loss of target.

One test has as its target T1, B-RAF V600E (Homo sapiens, UniProt P15056, V600E).
T1 construct: expressed in transfected cells; host or cells: T-Rex 293 cells (Invitrogen #R71007)
The experiment in a line: Target protein degradation, assay C: T-Rex 293 cells, HA-BRAF_V600E, 384 well format. The format is cell-based. The settings on record: T-Rex 293 HA-BRAF_V600E cells, 24 hours, Examples 83-269; for DC50: Assay C; for Dmax: T-REx-293, Assay C. The essentials: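 After 24 h exposure to an 11-point 1:3 series (300 nM–5 pM, 0.5% DMSO), fixed T-Rex 293 cells carrying HA-BRAF V600E (induced with 1 ng/mL doxycycline) were stained anti-HA and imaged. DC50 and Dmax were derived from BRAF intensity relative to control, and cytotoxicity from nuclear counts.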

A further test deals with T2, B-RAF G466V (Homo sapiens, UniProt P15056, G466V).
T2 construct: expressed in transfected cells; host or cells: T-Rex 293 cells (Invitrogen #R71007)
The experiment in a line: Target protein degradation, assay D: T-Rex 293 cells, HA-BRAF_G466V, 384 well format. The test is classed as cell-based. The conditions noted are these: T-Rex 293 HA-BRAF_G466V cells, 24 hours, Examples 83-269; for DC50: Assay D; for Dmax: T-REx-293, Assay D. In a few lines:
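Degradation measured by high-content imaging of anti-HA immunofluorescence in fixed T-Rex 293 cells carrying inducible HA-BRAF G466V (1 ng/mL doxycycline), after 24 h PROTAC exposure at 37 °C over 300 nM–5 pM (1:3, 11 points, 0.5% DMSO). Outputs DC50 and Dmax as % of control; nuclei counts against DMSO wells gauge toxicity.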

T2 sequence (P15056 whole entry G466V): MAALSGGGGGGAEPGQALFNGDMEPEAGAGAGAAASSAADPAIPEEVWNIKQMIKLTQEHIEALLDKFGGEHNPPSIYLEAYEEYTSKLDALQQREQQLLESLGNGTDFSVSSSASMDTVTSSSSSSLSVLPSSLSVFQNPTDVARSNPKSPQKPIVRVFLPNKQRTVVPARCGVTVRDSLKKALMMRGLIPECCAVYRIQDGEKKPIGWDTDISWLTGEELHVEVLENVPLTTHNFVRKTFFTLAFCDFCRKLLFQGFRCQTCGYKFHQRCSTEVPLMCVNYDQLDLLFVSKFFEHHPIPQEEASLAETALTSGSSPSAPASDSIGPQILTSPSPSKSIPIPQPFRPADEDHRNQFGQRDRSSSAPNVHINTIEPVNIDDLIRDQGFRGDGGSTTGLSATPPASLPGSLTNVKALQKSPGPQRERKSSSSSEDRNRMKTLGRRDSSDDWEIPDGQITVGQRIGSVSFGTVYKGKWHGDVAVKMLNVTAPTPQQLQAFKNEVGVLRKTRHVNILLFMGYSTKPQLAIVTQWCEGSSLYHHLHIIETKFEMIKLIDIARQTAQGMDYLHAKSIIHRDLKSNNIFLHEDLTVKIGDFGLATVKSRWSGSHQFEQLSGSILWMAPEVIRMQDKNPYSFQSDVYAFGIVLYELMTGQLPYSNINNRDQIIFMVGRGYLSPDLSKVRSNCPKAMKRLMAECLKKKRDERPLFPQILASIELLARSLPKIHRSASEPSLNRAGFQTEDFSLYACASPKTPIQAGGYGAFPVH
T1 sequence (P15056 whole entry V600E): as the sequence (P15056 whole entry G466V) above, with V466G, V600E counted along it

With `N#Cc1c(NS(=O)(=O)N2CC[C@@H](F)C2)ccc(F)c1Oc1ccc2ncn(-c3cnc(C4(N5CCN(CC6CN(c7ccc8c(c7)CN(C7CCC(=O)NC7=O)C8=O)C6)CC5)CC4)nc3)c(=O)c2c1` (stereo partly drawn) [Example 99, (3R)-N-(2-cyano-3-{[3-(2-{1-[4-({1-[2-(2,6-dioxopiperidin-3-yl)-1-oxo-2,3-dihydro-1H-isoindol-5-yl]azetidin-3-yl}methyl)piperazin-1-yl]cyclopropyl}pyrimidin-5-yl)-4-oxo-3,4-dihydroquinazolin-6-yl]oxy}-4-fluorophenyl)-3-fluoropyrrolidine-1-sulfonamide], at B-RAF V600E, the DC50 lay within 50 to 500 nM and the Dmax was in the range of 35 to 70%. At B-RAF G466V, this molecule yielded a DC50 of 1 to 10 nM and a Dmax of 35 to 70%.
Regarding `CC(=O)N(CC1CCN(c2ccc(-n3cnc4ccc(Oc5c(F)ccc(NS(=O)(=O)N6CC[C@@H](F)C6)c5C#N)cc4c3=O)cc2)CC1)[C@H]1C[C@@H](Oc2ccc3c(c2)CN([C@H]2CCC(=O)NC2=O)C3=O)C1` [Example 268, N-{[1-(4-{6-[2-cyano-6-fluoro-3-({[(3R)-3-fluoropyrrolidin-1-yl]sulfonyl}amino)phenoxy]-4-oxo-3,4-dihydroquinazolin-3-yl}phenyl)piperidin-4-yl]methyl}-N-[(1r,3r)-3-({2-[(3S)-2,6-dioxopiperidin-3-yl]-1-oxo-2,3-dihydro-1H-isoindol-5-yl}oxy)cyclobutyl]acetamide], the DC50 on B-RAF V600E was > 500 nM. At B-RAF G466V, the DC50 is 10 to 30 nM and the Dmax was ≤ 35%.
On B-RAF V600E, `N#Cc1c(NS(=O)(=O)N2CC[C@@H](F)C2)ccc(F)c1Oc1ccc2ncn(-c3ccc(N4CCC5(CCN(CC6CCN(c7ccc8c(c7)CN([C@@H]7CCC(=O)NC7=O)C8=O)CC6)CC5)CC4)cc3)c(=O)c2c1` [Example 201, (3R)-N-(2-cyano-3-{[3-(4-{9-[(1-{2-[(3R)-2,6-dioxopiperidin-3-yl]-1-oxo-2,3-dihydro-1H-isoindol-5-yl}piperidin-4-yl)methyl]-3,9-diazaspiro[5.5]undecan-3-yl}phenyl)-4-oxo-3,4-dihydroquinazolin-6-yl]oxy}-4-fluorophenyl)-3-fluoropyrrolidine-1-sulfonamide] gave a DC50 of 50 to 500 nM and a Dmax of 35 to 70%. On B-RAF G466V, this molecule registered a DC50 of 1 to 10 nM and a Dmax of 35 to 70%.
Regarding `N#Cc1c(NS(=O)(=O)N2CC[C@@H](F)C2)ccc(F)c1Oc1ccc2ncn(-c3ccc(N4CCC5(CCN(CC6CCN(c7ccc8c(c7)C(=O)N(C7CCC(=O)NC7=O)C8=O)CC6)CC5)CC4)nc3)c(=O)c2c1` (stereo partly drawn) [Example 145, (3R)-N-{2-cyano-3-[(3-{6-[9-({1-[2-(2,6-dioxopiperidin-3-yl)-1,3-dioxo-2,3-dihydro-1H-isoindol-5-yl]piperidin-4-yl}methyl)-3,9-diazaspiro[5.5]undecan-3-yl]pyridin-3-yl}-4-oxo-3,4-dihydroquinazolin-6-yl)oxy]-4-fluorophenyl}-3-fluoropyrrolidine-1-sulfonamide], the DC50 on B-RAF V600E was 50 to 500 nM; at B-RAF G466V it was 1 to 10 nM. Further, the Dmax at B-RAF V600E and at B-RAF G466V was 35 to 70% each time.
Regarding `CCN(C)S(=O)(=O)Nc1ccc(F)c(Oc2ccc3ncn(-c4ccc(N5CCN(CC6CN(c7ccc8c(c7)CN(C7CCC(=O)NC7=O)C8=O)C6)CC5)cc4)c(=O)c3c2)c1C#N` (stereo not shown) [Example 181, 2-[(3-{4-[4-({1-[2-(2,6-dioxopiperidin-3-yl)-1-oxo-2,3-dihydro-1H-isoindol-5-yl]azetidin-3-yl}methyl)piperazin-1-yl]phenyl}-4-oxo-3,4-dihydroquinazolin-6-yl)oxy]-6-{[ethyl(methyl)sulfamoyl]amino}-3-fluorobenzonitrile], on B-RAF V600E, the DC50 fell in the range of 50 to 500 nM and the Dmax lay in the range of 35 to 70%. Besides, on B-RAF G466V, the DC50 lay in the range of 1 to 10 nM and the Dmax was ≤ 35%.
The like results for `CN(c1ccc2c(c1)CN([C@H]1CCC(=O)NC1=O)C2=O)C1CCC2(CC1)CCN(CC1CCN(c3ccc(-n4cnc5ccc(Oc6c(F)ccc(NS(=O)(=O)N7CC[C@@H](F)C7)c6C#N)cc5c4=O)cc3)CC1)CC2` [Example 222, (3R)-N-[2-cyano-3-({3-[4-(4-{[9-({2-[(3S)-2,6-dioxopiperidin-3-yl]-1-oxo-2,3-dihydro-1H-isoindol-5-yl}(methyl)amino)-3-azaspiro[5.5]undecan-3-yl]methyl}piperidin-1-yl)phenyl]-4-oxo-3,4-dihydroquinazolin-6-yl}oxy)-4-fluorophenyl]-3-fluoropyrrolidine-1-sulfonamide] were, in that order, 50 to 500 nM, 35 to 70%, 1 to 10 nM and 35 to 70%.
The like results for `N#Cc1c(NS(=O)(=O)N2CC[C@@H](F)C2)ccc(F)c1Oc1ccc2ncn(-c3ccc(N4CCC(CN5CCC(c6ccc7c(c6)CN([C@H]6CCC(=O)NC6=O)C7=O)CC5)C4)cc3)c(=O)c2c1` (stereo partly drawn) [Example 221, (3R)-N-(2-cyano-3-{[3-(4-{3-[(4-{2-[(3S)-2,6-dioxopiperidin-3-yl]-1-oxo-2,3-dihydro-1H-isoindol-5-yl}piperidin-1-yl)methyl]pyrrolidin-1-yl}phenyl)-4-oxo-3,4-dihydroquinazolin-6-yl]oxy}-4-fluorophenyl)-3-fluoropyrrolidine-1-sulfonamide] were, in that order, 50 to 500 nM, 35 to 70%, 1 to 10 nM and 35 to 70%.
At B-RAF V600E, `N#Cc1c(NS(=O)(=O)N2CC[C@@H](F)C2)ccc(F)c1Oc1ccc2ncn(-c3ccc(N4CCC(CN5CC(c6ccc([C@H]7CCC(=O)NC7=O)cc6F)C5)CC4)cc3)c(=O)c2c1` [Example 183, (3R)-N-(2-cyano-3-{[3-(4-{4-[(3-{4-[(3R)-2,6-dioxopiperidin-3-yl]-2-fluorophenyl}azetidin-1-yl)methyl]piperidin-1-yl}phenyl)-4-oxo-3,4-dihydroquinazolin-6-yl]oxy}-4-fluorophenyl)-3-fluoropyrrolidine-1-sulfonamide] came in with a DC50 of 50 to 500 nM and a Dmax of 35 to 70%. In addition, the DC50 at B-RAF G466V is > 30 nM.
As to `CCN(CC1CCN(c2ccc(-n3cnc4ccc(Oc5c(F)ccc(NS(=O)(=O)N6CC[C@@H](F)C6)c5C#N)cc4c3=O)cc2)CC1)[C@H]1C[C@@H](Oc2ccc3c(c2)CN([C@H]2CCC(=O)NC2=O)C3=O)C1` [Example 264, (3R)-N-{2-cyano-3-[(3-{4-[4-({ethyl[(1r,3r)-3-({2-[(3S)-2,6-dioxopiperidin-3-yl]-1-oxo-2,3-dihydro-1H-isoindol-5-yl}oxy)cyclobutyl]amino}methyl)piperidin-1-yl]phenyl}-4-oxo-3,4 dihydroquinazolin-6-yl)oxy]-4-fluorophenyl}-3-fluoropyrrolidine-1-sulfonamide], on B-RAF V600E, the DC50 lay within 50 to 500 nM and the Dmax lay in the range of 35 to 70%. At B-RAF G466V, this molecule showed a DC50 of 1 to 10 nM and a Dmax of 35 to 70%.
At B-RAF V600E, `N#Cc1c(NS(=O)(=O)N2CC[C@@H](F)C2)ccc(F)c1Oc1ccc2ncn(-c3cnc(C4(N5CCN(CC6CCN(c7ccc(C8CCC(=O)NC8=O)cc7F)CC6)CC5)CC4)nc3)c(=O)c2c1` (stereo partly drawn) [Example 106, (3R)-N-(2-cyano-3-{[3-(2-{1-[4-({1-[4-(2,6-dioxopiperidin-3-yl)-2-fluorophenyl]piperidin-4-yl}methyl)piperazin-1-yl]cyclopropyl}pyrimidin-5-yl)-4-oxo-3,4-dihydroquinazolin-6-yl]oxy}-4-fluorophenyl)-3-fluoropyrrolidine-1-sulfonamide] yielded a DC50 of 50 to 500 nM and a Dmax of 35 to 70%. Moreover, at B-RAF G466V, the DC50 is 1 to 10 nM and the Dmax is ≤ 35%.
The like results for `N#Cc1c(NS(=O)(=O)N2CC[C@@H](F)C2)ccc(F)c1Oc1ccc2ncn(-c3ccc(N4CCN(CC5CN(c6cc(F)c7c(c6)CN(C6CCC(=O)NC6=O)C7=O)C5)CC4)cc3)c(=O)c2c1` (stereo partly drawn) [Example 247, (3R)—N-{2-cyano-3-[(3-{4-[4-({1-[2-(2,6-dioxopiperidin-3-yl)-7-fluoro-1-oxo-2,3-dihydro-1H-isoindol-5-yl]azetidin-3-yl}methyl)piperazin-1-yl]phenyl}-4-oxo-3,4-dihydroquinazolin-6-yl)oxy]-4-fluorophenyl}-3-fluoropyrrolidine-1-sulfonamide] were, in that order, 50 to 500 nM, ≥ 70%, 1 to 10 nM and 35 to 70%.
For the molecule `N#Cc1c(NS(=O)(=O)N2CC[C@@H](F)C2)ccc(F)c1Oc1ccc2ncn(-c3cnc(N4CCN(CCN5CCN(c6ccc(C7CCC(=O)NC7=O)cc6F)CC5)CC4)nc3)c(=O)c2c1` (stereo partly drawn) [Example 175, (3R)-N-{2-cyano-3-[(3-{2-[4-(2-{4-[4-(2,6-dioxopiperidin-3-yl)-2-fluorophenyl]piperazin-1-yl}ethyl)piperazin-1-yl]pyrimidin-5-yl}-4-oxo-3,4-dihydroquinazolin-6-yl)oxy]-4-fluorophenyl}-3-fluoropyrrolidine-1-sulfonamide], the DC50 at B-RAF V600E was 5 to 50 nM; at B-RAF G466V, 1 to 10 nM. Further, the Dmax at B-RAF V600E and on B-RAF G466V was 35 to 70% each time.
